The record followed here is patent US20120115827A1, “3-AMINOBENZAMIDE COMPOUNDS AND VANILLOID RECEPTOR SUBTYPE 1 (VR1) INHIBITORS” (Japan Tobacco Inc., priority 2004, published 2012).

Broadly, the IC50 is the midpoint of a concentration-inhibition curve.

Structures can show the parent of a compound that is named as a salt.

In this assay the target is T1, human VR1 (Homo sapiens, UniProt Q8NER1).
T1 construct: expressed in transfected cells
Briefly: Inhibition of Ca2+ entry in cells caused by proton (VR1 agonist). In kind it is cell-based. The conditions noted are these: Rat glioma (C6BU1) cells stably expressing human VR1; proton stimulation to pH 5.5; Fura 2-AM fluorescence; read-out: In vitro IC50. The protocol:
The assay for evaluation of VR1 inhibition by the inventive compounds will be described below. The assay was intended to evaluate in vitro inhibition of Ca^2+ entry in cells caused by proton, one of the VR1 agonists.
Rat glioma (C6BU1) cells stably expressing human VR1 were suspended in 20 mM MES buffer (at pH 6.8, contg. 20 mM 2-morpholinoethanesulfonate (referred to as MES hereinafter), 115 mM NaCl, 5 mM KCl, 1 mM MgCl2 and 14 mM D-glucose) to make a cell density of 1×10^6 cells/mL. A fluorescent dye, Fura 2-AM solution (Dojindo Corporate, Cat. No. 343-05401) was added to the suspension to make a 5 μM concentration thereof. Further, Pluronic F-127 (Wako Pure Chemical Industries, Ltd., Cat. No. P6866) was added to make a 0.1% content thereof. Then, the suspension was incubated at 37° C. for 30 min. The cells were harvested and washed three times with 20 mM MES buffer. The cells were suspended again to make a cell density of 5×10^5 cells/mL. A 500-μL portion of the suspension was taken with a cuvette (MC MEDICAL, INC., Cat. No. SSR3121), to which […] MES buffer containing 250 mM CaCl2 was added to incorporate Ca^2+ into the cells. At the same time, 5 μL of a test compound solution (in a range of 100 μM to 10 nM in DMSO) was also added to provide a final concentration thereof in a range of 1 μM to 0.1 nM. Alternatively, 5 μl of DMSO was added as control to provide a final concentration of 1% DMSO. The suspension was set in an intracellular ionometer (CAF-110; JASCO) 10 min after those additions. The cells were stimulated with protons by addition of 60 μL of 20 mM MES buffer at pH 1.1 to the suspension to set its pH at 5.5. The activity of the test compound was determined as a difference between the minimum of fluorescence intensity before agonist stimulation and its maximum after the stimulation. The value of IC50 was derived from percentage of inhibition by the test compound compared with the control.

T1 sequence (Q8NER1 whole entry): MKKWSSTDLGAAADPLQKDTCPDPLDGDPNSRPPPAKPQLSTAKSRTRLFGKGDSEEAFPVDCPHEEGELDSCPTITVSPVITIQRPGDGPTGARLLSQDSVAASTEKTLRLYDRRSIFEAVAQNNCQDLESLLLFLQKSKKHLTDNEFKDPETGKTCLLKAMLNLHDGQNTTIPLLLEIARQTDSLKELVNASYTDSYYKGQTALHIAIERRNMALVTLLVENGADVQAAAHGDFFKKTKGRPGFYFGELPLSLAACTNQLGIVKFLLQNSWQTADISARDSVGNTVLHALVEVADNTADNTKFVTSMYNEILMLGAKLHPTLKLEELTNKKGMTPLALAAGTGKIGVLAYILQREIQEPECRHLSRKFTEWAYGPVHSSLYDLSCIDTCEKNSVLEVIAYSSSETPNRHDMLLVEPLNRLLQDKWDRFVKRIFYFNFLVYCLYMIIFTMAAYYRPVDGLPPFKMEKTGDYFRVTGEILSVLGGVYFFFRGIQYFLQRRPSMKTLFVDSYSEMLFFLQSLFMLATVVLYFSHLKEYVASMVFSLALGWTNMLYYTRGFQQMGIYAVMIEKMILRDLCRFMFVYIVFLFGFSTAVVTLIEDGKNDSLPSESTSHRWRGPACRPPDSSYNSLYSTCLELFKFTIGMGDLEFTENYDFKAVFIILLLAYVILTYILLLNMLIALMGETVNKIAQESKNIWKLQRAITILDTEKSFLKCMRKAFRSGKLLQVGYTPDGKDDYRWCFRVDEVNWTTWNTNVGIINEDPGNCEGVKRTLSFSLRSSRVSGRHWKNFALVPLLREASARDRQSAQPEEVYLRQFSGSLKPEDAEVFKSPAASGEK

Take `CN(c1cccc(C(=O)Nc2ccc(C(C)(C)C)cc2)c1)c1ccccn1` [Example 2, N-(4-tert-butylphenyl)-3-[N-(pyridin-2-yl)-N-methyl-amino]benzamide, hydrochloride salt]: the IC50 fell in the range of 100 to 1000 nM.

Turning to `CN(c1cc(C(=O)Nc2ccc(C(C)(C)C)cc2)ccc1Cl)c1ncc(CO)cc1Cl` [Example 78, N-(4-tert-butylphenyl)-4-chloro-3-[N-(3-chloro-5-hydroxymethylpyridin-2-yl)-N-methyl-amino]benzamide], the IC50 was at most 100 nM.

Take `CN(c1cc(C(=O)Nc2ccc(Cl)cc2)ccc1Cl)c1ncc(CO)cc1Cl` [Example 80, 4-chloro-3-[N-(3-chloro-5-hydroxymethylpyridin-2-yl)-N-methyl-amino]-N-(4-chlorophenyl)-benzamide]: the IC50 was at most 100 nM.

As for `CNC(=O)c1cc(NC(=O)c2ccc(Cl)c(N(CCO)c3ncccc3Cl)c2)ccc1OCC(C)C` [Example 55, 4-chloro-3-[N-(3-chloropyridin-2-yl)-N-(2-hydroxyethyl)amino]-N-(4-isobutyloxy-3-methylcarbamoylphenyl)-benzamide], the IC50 is at most 100 nM.

Turning to `Cc1c(C(=O)Nc2ccc(C(C)(C)C)cc2)cccc1N(C)c1ncccc1Cl` [Example 6, N-(4-tert-butylphenyl)-3-[N-(3-chloropyridin-2-yl)-N-methyl-amino]-2-methylbenzamide], the IC50 is at most 100 nM.

As for `O=C(Nc1ccc(N2CCCCC2)c(F)c1)c1ccc(Cl)c(N(CCO)c2ncccc2Cl)c1` [Example 43, 4-chloro-3-[N-(3-chloropyridin-2-yl)-N-(2-hydroxyethyl)amino]-N-(3-fluoro-4-piperidinylphenyl)-benzamide], the IC50 was at most 100 nM.

`NC(=O)CN(c1cc(C(=O)Nc2ccc(OC(F)(F)F)cc2)ccc1Cl)c1ncc(C(F)(F)F)cc1Cl` [Example 67, 4-chloro-3-[N-(3-chloro-5-trifluoromethylpyridin-2-yl)-N-(carbamoylmethyl)amino]-N-(4-trifluoromethoxyphenyl)-benzamide]: the IC50 is at most 100 nM.

For the compound `CC(C)(C)c1ccc(NC(=O)c2cccc(N(CCO)c3ncccc3Cl)c2)cc1` [Example 53, N-(4-tert-butylphenyl)-3-[N-(3-chloropyridin-2-yl)-N-(2-hydroxyethyl)amino]-benzamide], the half-inhibitory concentration (IC50) is at most 100 nM.

With `CN(C)C(=O)c1cnc(N(C)c2cc(C(=O)Nc3ccc(C(C)(C)C)cc3)ccc2Cl)c(Cl)c1` [Example 77, 6-{[5-(4-tert-butylphenylcarbamoyl)-2-chlorophenyl]-methyl-amino}-5-chloro-N,N-dimethylnicotinamide], the 50% inhibitory concentration (IC50) was 100 to 1000 nM.

As for `CN(c1ccccn1)c1cc(C(=O)Nc2ccc(C(C)(C)C)cc2)ccc1Cl` [Example 13, N-(4-tert-butylphenyl)-4-chloro-3-[N-(pyridin-2-yl)-N-methyl-amino]benzamide], the IC50 lay within 100 to 1000 nM.

Turning to `Cc1ccc(C(=O)Nc2ccc(C(C)(C)C)cc2)cc1N(C)c1ncccc1Cl` [Example 7, N-(4-tert-butylphenyl)-3-[N-(3-chloropyridin-2-yl)-N-methyl-amino]-4-methylbenzamide], the IC50 was at most 100 nM.

Take `NC(=O)CN(c1cc(C(=O)Nc2ccc(C(F)(F)F)cc2)ccc1Cl)c1ncc(C(F)(F)F)cc1Cl` [Example 68, 4-chloro-3-[N-(3-chloro-5-trifluoromethylpyridin-2-yl)-N-(carbamoylmethyl)amino]-N-(4-trifluoromethylphenyl)-benzamide]: the IC50 is at most 100 nM.

For `NC(=O)CN(c1ccc(Cl)cn1)c1cc(C(=O)Nc2ccc(OC(F)(F)F)cc2)ccc1Cl` [Example 69], the IC50 is at most 100 nM.

For `Cc1ccc(C(=O)Nc2ccc(OC(F)(F)F)cc2)cc1N(CC(N)=O)c1ncccc1Cl` [Example 64, 3-[N-(3-chloropyridin-2-yl)-N-(carbamoylmethyl)amino]-4-methyl-N-(4-trifluoromethoxyphenyl)-benzamide], the IC50 is at most 100 nM.

`O=C(Nc1ccc(Cl)cc1)c1ccc(Cl)c(N(CCO)c2ncccc2Cl)c1` [Example 36, 4-chloro-N-(4-chlorophenyl)-3-[N-(3-chloropyridin-2-yl)-N-(2-hydroxyethyl)amino]-benzamide]: the IC50 was at most 100 nM.

As for `CN(c1cc(C(=O)Nc2ccc(C(C)(C)C)cc2)ccc1O)c1ncccc1Cl` [Example 15, N-(4-tert-butylphenyl)-3-[N-(3-chloropyridin-2-yl)-N-methyl-amino]-4-hydroxybenzamide], the IC50 was at most 100 nM.

As for `CN(c1cccc(C(=O)Nc2ccc(C(C)(C)C)cc2)c1OCCO)c1ncccc1Cl` [Example 27, N-(4-tert-butylphenyl)-3-[N-(3-chloropyridin-2-yl)-N-methyl-amino]-2-(2-hydroxyethyl)oxybenzamide], the IC50 was at most 100 nM.

For `CCOC(=O)c1cnc(N(C)c2cc(C(=O)Nc3ccc(C(C)(C)C)cc3)ccc2Cl)c(Cl)c1` [Example 73, Ethyl 6-{[5-(4-tert-butylphenylcarbamoyl)-2-chlorophenyl]-methyl-amino}-5-chloronicotinate], the half-inhibitory concentration (IC50) was 100 to 1000 nM.

For the compound `CN(c1cc(C(=O)Nc2ccc(C(C)(C)C)cc2)ccc1Cl)c1ncc(C(N)=O)cc1Cl` [Example 75, 6-{[5-(4-tert-butylphenylcarbamoyl)-2-chlorophenyl]-methyl-amino}-5-chloronicotinamide], the IC50 is at most 100 nM.

Take `COc1ccc(C(=O)Nc2ccc(C(C)(C)C)cc2)cc1N(CCO)c1ncccc1Cl` [Example 28, N-(4-tert-butylphenyl)-3-[N-(3-chloropyridin-2-yl)-N-(2-hydroxyethyl)]amino-4-methoxybenzamide]: the half-maximal inhibitory concentration (IC50) is at most 100 nM.

For the compound `CN(c1cc(C(=O)Nc2ccc(C(F)(F)F)cc2)ccc1F)c1ncc(CO)cc1Cl` [Example 82, 3-[N-(3-chloro-5-hydroxymethylpyridin-2-yl)-N-methyl-amino]-4-fluoro-N-(4-trifluoromethylphenyl)-benzamide], the IC50 was at most 100 nM.

In the case of `CN(c1cccc(C(=O)Nc2ccc(C(C)(C)C)cc2)c1O)c1ncccc1Cl` [Example 25, N-(4-tert-butylphenyl)-3-[N-(3-chloropyridin-2-yl)-N-methyl]amino-2-hydroxybenzamide], the IC50 lay within 100 to 1000 nM.

On to `CC(C)c1ccc(NC(=O)c2ccc(Cl)c(N(CCO)c3ncccc3Cl)c2)cc1` [Example 37, 4-chloro-3-[N-(3-chloropyridin-2-yl)-N-(2-hydroxyethyl)amino]-N-(4-isopropylphenyl)-benzamide], for which the half-maximal inhibitory concentration (IC50) is at most 100 nM.

With `CC(C)COc1ccc(NC(=O)c2cccc(N(CCO)c3ncccc3Cl)c2)cc1` [Example 52, 3-[N-(3-chloropyridin-2-yl)-N-(2-hydroxyethyl)amino]-N-(4-isobutyloxyphenyl)-benzamide], the 50% inhibitory concentration (IC50) is at most 100 nM.

As for `CN(c1ccc(Cl)c(C(=O)Nc2ccc(C(C)(C)C)cc2)c1)c1ncccc1Cl` [Example 24, N-(4-tert-butylphenyl)-2-chloro-5-[N-(3-chloropyridin-2-yl)-N-methyl]aminobenzamide], the IC50 was in the range of 100 to 1000 nM.

Consider `CC(C)Oc1ccc(NC(=O)c2ccc(Cl)c(N(CCO)c3ncccc3Cl)c2)cc1` [Example 41, 4-chloro-3-[N-(3-chloropyridin-2-yl)-N-(2-hydroxyethyl)amino]-N-(4-isopropyloxyphenyl)-benzamide], for which the IC50 was at most 100 nM.

In the case of `NC(=O)CN(c1cc(C(=O)Nc2ccc(N3CCCCC3)c(F)c2)ccc1Cl)c1ncccc1Cl` [Example 62, 4-chloro-3-[N-(3-chloropyridin-2-yl)-N-(carbamoylmethyl)amino]-N-(3-fluoro-4-piperidinophenyl)-benzamide], the IC50 was at most 100 nM.

With `CN(C)C(=O)COc1ccc(C(=O)Nc2ccc(C(C)(C)C)cc2)cc1N(C)c1ncccc1Cl` [Example 22, N-(4-tert-butylphenyl)-3-[N-(3-chloropyridin-2-yl)-N-methyl-amino]-4-(N,N-dimethylcarbamoylmethyl)oxybenzamide], the concentration for half-maximal inhibition (IC50) is 100 to 1000 nM.

Consider `COCc1cnc(N(CC(N)=O)c2cc(C(=O)Nc3ccc(C(F)(F)F)cc3)ccc2Cl)c(Cl)c1` [Example 72, 4-chloro-3-[N-(3-chloro-5-methoxymethylpyridin-2-yl)-N-(carbamoylmethyl)amino]-N-(trifluoromethylphenyl)-benzamide], for which the IC50 was at most 100 nM.

Regarding `CC(C)COc1ccc(NC(=O)c2ccc(Cl)c(N(CCO)c3ncccc3Cl)c2)cc1` [Example 35, 4-chloro-3-[N-(3-chloropyridin-2-yl)-N-(2-hydroxyethyl)amino]-N-(4-isobutyloxyphenyl)benzamide, hydrochloride salt], the IC50 is at most 100 nM.

Take `CN(c1cc(C(=O)Nc2ccc(C(C)(C)C)cc2)ccc1F)c1ncccc1Cl` [Example 9, N-(4-tert-butylphenyl)-3-[N-(3-chloropyridin-2-yl)-N-methyl-amino]-4-fluorobenzamide]: the half-maximal inhibitory concentration (IC50) was at most 100 nM.
